Experiments:
[1] = tested on: living, perfused microvessels (vasculature) of in vitro vascularized microtumors; conditions: VMT platform, Sobrino et al. 2016; cited from earlier work
[2] = tested on: pancreatic patient-derived xenograft; assay: In vivo efficacy in pancreatic patient-derived xenograft (PDX-mouse model); conditions: average response of 5 individual animals
Procedure: To compare whether the in vitro efficacy analysis is matching in vivo (mouse) efficacy drug response data as obtained, pancreatic patient-derived xenograft (PDX-mouse model) and pancreatic microtumors derived from PDX tumor tissue were generated. Two single drugs (Gemcitabine and Abraxane) and two drug combinations (Gemcitabine:Erlotinib and Gemcitabine:Abraxane) were tested. In vivo data points reflect the average response of 5 individual animals.

[3] = tested on: pancreatic pdx microtumors 12558; assay: Drug efficacy on PDX-derived pancreatic microtumors by tumor growth kinetics over 11 days; format: cell-based; conditions: drugs at cmax values in vivo, 11 days monitoring

N#CC1(c2ccc(NC(=O)c3cccnc3NCc3ccncc3)cc2)CCCC1 [Apatinib]
effect on vasculature of vascularized microtumors [1]: not effective

Nc1ccn([C@@H]2O[C@H](CO)[C@@H](O)C2(F)F)c(=O)n1 [Gemcitabine]
in vivo (mouse) efficacy drug response [2]: highest efficacy
drug efficacy on microtumors (t11/t0 and t11treated/t11control) [3]: highest efficacy

O=C1[O][Pt]2([NH][C@@H]3CCCC[C@H]3[NH]2)[O]C1=O [Oxaliplatin]
drug efficacy on microtumors (t11/t0 and t11treated/t11control) [3]: least effective

Reference: patent publication US20220326219A1, “METHODS AND DEVICE FOR THE ANALYSIS OF TISSUE SAMPLES” (PRECOMB THERAPEUTICS AG, priority 2019, published 2022)
